Some results are limits rather than exact numbers.

This is an account of results in patent US20130296311A1, “INHIBITORS OF HCV NS5A” (PRESIDIO PHARMACEUTICALS, INC., priority 2010, published 2013).

The subject of the first test is HCV 1b_Huh-Luc/Neo-ET cell line persistently expressing a bicistronic genotype 1b replicon in Huh 7 cells. As to the kind of experiment: HCV replicon assay (luciferase readout, 72 h). The format is cell-based, HCV genotype 1b. The following applies: Hepatitis C virus, Huh-7, 72 h, read-out: Inhibition of HCV genotype 1b. The procedure, abridged:
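Huh 7 cells carrying a bicistronic genotype 1b luciferase/neo replicon received compound in triplicate the day after plating. After 72 h, replicon levels were read as Bright-Glo luciferase activity, expressed as % of control; EC50 was fitted with a four-parameter logistic and determined several times.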
Take `CC(C)(C)OC(=O)N1CCC[C@H]1c1ncc(C#Cc2ccc(-c3cnc([C@@H]4CCCN4C(=O)OC(C)(C)C)[nH]3)cc2)[nH]1` [Compound 101]: the EC50 lay in the range of 10 to 999 nM.

With `C[C@@H](c1ncc(-c2ccc(C#Cc3ccc(-c4cnc([C@@H]5CCCN5C(=O)[C@H](NC(=O)OC(C)(C)C)c5ccccc5)[nH]4)cc3)cc2)[nH]1)N(C)C(=O)[C@H](NC(=O)OC(C)(C)C)c1ccccc1` [Compound 265], the EC50 is less than 1 nM.

`COC(=O)N[C@H](C(=O)N1CC[C@H](O)[C@H]1c1ncc(-c2ccc(C#Cc3ccc4nc([C@@H]5CCCN5C(=O)[C@@H](NC(=O)OC)C(C)C)[nH]c4c3)cc2)[nH]1)C(C)C` [Compound 1068]: the EC50 is less than 1 nM.

Consider `COC(=O)N[C@@H](C)C(=O)N1CCC[C@H]1c1ncc(-c2ccc(C#Cc3ccc(-c4cnc([C@@H]5CCCN5C(=O)[C@H](NC(=O)OC)c5ccccc5)[nH]4)cc3)cc2)[nH]1` [Compound 1004], for which the EC50 was less than 1 nM.

With `COC(=O)N[C@@H](C(=O)N1CCC[C@H]1c1ncc(-c2ccc(C#Cc3ccc(-c4cnc([C@@H]5CCCN5C(=O)[C@@H]5CCCN5C)[nH]4)cc3)cc2)[nH]1)c1ccccc1` [Compound 202], the EC50 is less than 1 nM.

With `COC(=O)N[C@@H](C(=O)N1CCC[C@H]1c1ncc(-c2ccc(C#Cc3ccc(-c4cnc([C@@H]5CCCN5C(=O)[C@H](NC(=O)C5CC5)c5ccccc5)[nH]4)cc3)cc2)[nH]1)c1ccccc1` [Compound 218], the EC50 is less than 1 nM.

On to `COC(=O)N[C@@H](C(=O)N1CCC[C@H]1c1ncc(-c2ccc(C#Cc3ccc(-c4cnc([C@@H]5CCCN5C(=O)Cc5cccnc5)[nH]4)cc3)cc2)[nH]1)c1ccccc1` [Compound 181], for which the EC50 was less than 1 nM.

Take `COC(=O)N[C@H](C(=O)N(C)[C@@H](C)c1ncc(-c2ccc(C#Cc3ccc(-c4cnc([C@@H]5CCCN5C(=O)[C@@H](NC(=O)OC)C(C)C)[nH]4)cc3)cc2)[nH]1)C(C)C` [Compound 267]: the EC50 was less than 1 nM.

`COC(=O)N[C@H](C(=O)N1CCC[C@H]1c1ncc(-c2ccc3cc(C#Cc4ccc5nc([C@@H]6CCCN6C(=O)[C@@H](NC(=O)OC)C(C)C)[nH]c5c4)ccc3c2)[nH]1)C(C)C` [Compound 1111]: the EC50 is less than 1 nM.

For `COC(=O)N[C@@H](C(=O)N1CCC[C@H]1c1ncc(-c2ccc(C#Cc3ccc(-c4cnc([C@@H]5CCCN5C(=O)[C@H](NC(=O)N5CCOCC5)c5ccccc5)[nH]4)cc3)cc2)[nH]1)c1ccccc1` [Compound 224], the EC50 was less than 1 nM.

Take `COC(=O)N[C@@H](C(=O)N1CCC[C@H]1c1ncc(-c2ccc3nc(C#Cc4ccc5nc([C@@H]6CCCN6C(=O)[C@H](NC(=O)OC)c6ccccc6)[nH]c5c4)ccc3c2)[nH]1)c1ccccc1` [Compound 1109]: the EC50 was less than 1 nM.

Consider `CC(=O)N[C@@H](C(=O)N1CCC[C@H]1c1ncc(C#Cc2ccc(C#Cc3cnc([C@@H]4CCCN4C(=O)[C@H](NC(C)=O)c4ccccc4)[nH]3)cc2)[nH]1)c1ccccc1` [Compound 306], for which the EC50 is less than 1 nM.

As to `CC(C)[C@@H](NC(=O)OC(C)(C)C)C(=O)N1CCC[C@H]1C(=O)NCCc1ccc(C#Cc2cnc([C@@H]3CCCN3C(=O)[C@H](NC(=O)OC(C)(C)C)C(C)C)[nH]2)cc1` [Compound 126], the EC50 lay within 10 to 999 nM.

In the case of `O=C(N[C@@H](C(=O)N1CCC[C@H]1c1nc(-c2ccc3cc(C#Cc4cnc([C@@H]5CCCN5C(=O)[C@H](NC(=O)N5CCOCC5)c5ccccc5)[nH]4)ccc3c2)c[nH]1)c1ccccc1)N1CCOCC1` [Compound 808], the EC50 is less than 1 nM.

Consider `COC(=O)N[C@H]1CCC[C@@H]1C(=O)N1CCC[C@H]1c1ncc(-c2ccc(C#Cc3ccc4nc([C@@H]5CCCN5C(=O)[C@H]5CCC[C@@H]5NC(=O)OC)[nH]c4c3)cc2)[nH]1` [Compound 1059], for which the EC50 was in the range of 10 to 999 nM.

Consider `COC(=O)N[C@H](C(=O)N[C@@H](C)c1ncc(-c2ccc(C#Cc3ccc(-c4cnc([C@@H]5CCCN5C(=O)[C@@H](NC(=O)OC)C(C)C)[nH]4)cc3)cc2)[nH]1)C(C)C` [Compound 275], for which the EC50 is less than 1 nM.

With `CCN(CC)[C@@H](C(=O)N1CCC[C@H]1c1ncc(-c2ccc(-c3ccc(C#Cc4cnc([C@@H]5CCCN5C(=O)[C@H](NC(=O)OC)c5ccccc5)[nH]4)cc3)cc2)[nH]1)c1ccccc1` [Compound 751], the EC50 is less than 1 nM.

For the compound `COC(=O)N[C@H](C(=O)N1CCC[C@H]1c1ncc(-c2ccc(C#Cc3ccc4nc([C@@H]5CCCN5C(=O)[C@@H](NC(=O)OC)C5CC5)[nH]c4c3)cc2)[nH]1)C1CC1` [Compound 1029], the EC50 is less than 1 nM.

Take `COC(=O)NC(C(=O)N1CCC[C@H]1c1ncc(-c2ccc(C#Cc3ccc(-c4cnc([C@@H]5CCCN5C(=O)[C@H](NC(=O)OC)[C@H](C)O)[nH]4)cc3)cc2)[nH]1)[C@H](C)O` (stereo partly drawn) [Compound 978]: the EC50 is 10 to 999 nM.

`COC(=O)N[C@H](C(=O)N1CCC[C@H]1c1ncc(-c2ccc(C#Cc3ccc(-c4cnc([C@@H]5CCCN5C(=O)[C@H](NC(=O)N5CCC(O)CC5)c5ccccc5)[nH]4)cc3)cc2)[nH]1)C(C)C` [Compound 991]: the EC50 lay in the range of 1 to 9.9 nM.

Turning to `CN1CCN(C(=O)N[C@@H](C(=O)N2CCC[C@H]2c2ncc(-c3ccc(C#Cc4ccc(-c5cnc([C@@H]6CCCN6C(=O)[C@H](NC(=O)N6CCN(C)CC6)c6ccccc6)[nH]5)cc4)cc3)[nH]2)c2ccccc2)CC1` [Compound 159], the EC50 is less than 1 nM.

Consider `COC(=O)N[C@@H](C(=O)N[C@H](c1ncc(-c2ccc(C#Cc3ccc(-c4cnc([C@@H]5CCCN5C(=O)[C@H](NC(=O)OC)c5ccccc5)[nH]4)cc3)cc2)[nH]1)C(C)C)c1ccccc1` [Compound 282], for which the EC50 is less than 1 nM.

As for `COC(=O)N[C@H](C(=O)N1CCC[C@H]1c1ncc(-c2ccc(C#Cc3ccc4c(ccc5nc([C@@H]6CCCN6C(=O)[C@@H](NC(=O)OC)C(C)C)[nH]c54)c3)cc2)[nH]1)C(C)C` [Compound 1095], the EC50 was less than 1 nM.

For the compound `COC(=O)N[C@H](C(=O)N1CCC[C@H]1c1ncc(-c2ccc(C#Cc3ccc(-c4cnc([C@@H]5CCCN5C(=O)[C@@H](c5ccccc5)N5CCN(CCO)CC5)[nH]4)cc3)cc2)[nH]1)C(C)C` [Compound 958], the EC50 was less than 1 nM.

Take `O=C(N[C@@H](C(=O)N1CCC[C@H]1c1ncc(-c2ccc(C#Cc3ccc(-c4cnc([C@@H]5CCCN5C(=O)[C@H](NC(=O)C5CC5)c5ccccc5)[nH]4)cc3)cc2)[nH]1)c1ccccc1)C1CC1` [Compound 153]: the EC50 was less than 1 nM.

Consider `COC(=O)N[C@@H](C(=O)N1CCC[C@H]1c1ncc(-c2ccc(C#Cc3ccc4nc([C@@H]5CCCN5C(=O)[C@H](NC(=O)OC)c5ccccc5)[nH]c4c3)cc2)[nH]1)c1ccccc1` [Compound 800], for which the EC50 was less than 1 nM.

On to `COC(=O)N[C@H](C(=O)N1CCOC[C@H]1c1ncc(-c2ccc(C#Cc3ccc4nc([C@@H]5CCCN5C(=O)[C@@H](NC(=O)OC)C(C)C)[nH]c4c3)cc2)[nH]1)C(C)C` [Compound 1027], for which the EC50 was less than 1 nM.

Turning to `COC(=O)N[C@@H](C(=O)N1CCC[C@H]1c1ncc(C#Cc2ccc(-c3ccc(-c4cnc([C@@H]5CCCN5C(=O)[C@@H](c5ccccc5)N5CCOCC5)[nH]4)cc3)cc2)[nH]1)c1ccccc1` [Compound 758], the EC50 was less than 1 nM.

Regarding `O=C(N[C@@H](C(=O)N1CCC[C@H]1C(=O)Nc1ccc(C#Cc2ccc(-c3cnc([C@@H]4CCCN4C(=O)[C@H](NC(=O)C4CC4)c4ccccc4)[nH]3)cc2)cc1)c1ccccc1)C1CC1` [Compound 166], the EC50 is less than 1 nM.

As for `O=C(N[C@@H](C(=O)N1CCC[C@H]1C(=O)NCc1ccc(C#Cc2cnc([C@@H]3CCCN3C(=O)[C@H](NC(=O)C3CC3)c3ccccc3)[nH]2)cc1)c1ccccc1)C1CC1` [Compound 121], the EC50 was less than 1 nM.

In the case of `COC(=O)N[C@H](C(=O)N1CCC[C@H]1c1ncc(-c2ccc(C#Cc3ccc(-c4cnc([C@@H]5CCCN5C(=O)[C@H](NC(=O)N5CCN(C)CC5)c5ccccc5)[nH]4)cc3)cc2)[nH]1)C(C)C` [Compound 989], the EC50 is less than 1 nM.

With `C[C@H](NC(=O)[C@@H]1CCCN1C(=O)[C@H](NC(=O)C1CC1)c1ccccc1)c1ccc(C#Cc2cnc([C@@H]3CCCN3C(=O)[C@H](NC(=O)C3CC3)c3ccccc3)[nH]2)cc1` [Compound 132], the EC50 is 10 to 999 nM.

Take `O=C(N[C@@H](C(=O)N1CCC[C@H]1c1ncc(-c2ccc3nc(C#Cc4ccc5nc([C@@H]6CCCN6C(=O)[C@H](NC(=O)OC6CCOCC6)c6ccccc6)[nH]c5c4)ccc3c2)[nH]1)c1ccccc1)OC1CCOCC1` [Compound 1110]: the EC50 is less than 1 nM.

The test is the same for the next values; noted with them: Hepatitis C virus, Huh-7, read-out: Inhibition of HCV genotype 1b.
For the compound `COC(=O)N[C@H](C(=O)N1CCN(C(=O)OC)C[C@H]1c1ncc(-c2ccc(C#Cc3ccc(-c4cnc([C@@H]5CCCN5C(=O)[C@H](NC(=O)OC)c5ccccc5)[nH]4)cc3)cc2)[nH]1)C(C)C` [Compound 1206], the EC50 is less than 1 nM.

For `COC(=O)N[C@H](C(=O)N1CCC[C@H]1c1nc2ccc3cc(C#Cc4ccc5nc([C@@H]6CCCN6C(=O)[C@@H](NC(=O)OC)C6CCOCC6)[nH]c5c4)ccc3c2[nH]1)C(C)C` [Compound 1274], the EC50 was less than 1 nM.

As for `COC(=O)N[C@H](C(=O)N1CCC[C@H]1c1ncc(-c2ccc(C#Cc3ccc4c(ccc5nc([C@@H]6CCCN6C(=O)[C@@H](NC(=O)OC)C6CCOCC6)[nH]c54)c3)cc2)[nH]1)C(C)C` [Compound 1272], the EC50 was less than 1 nM.

As to `COC(=O)N[C@H](C(=O)N1CCC[C@H]1c1ncc(-c2ccc(C#Cc3ccc(-c4cnc([C@@H]5CCCN5C(=O)[C@@H](NC(=O)OC)C5CCOCC5)[nH]4)cc3)cc2)[nH]1)C1CCCC1` [Compound 1221], the EC50 was less than 1 nM.

Take `COC(=O)NC(C(=O)N1CCC[C@H]1c1nc2ccc(C#Cc3ccc4cc(-c5cnc([C@@H]6CCCN6C(=O)[C@H](NC(=O)OC6CCOCC6)c6ccccc6)[nH]5)ccc4n3)cc2[nH]1)C(C)C` (stereo partly drawn) [Compound 1291]: the EC50 was less than 1 nM.

In the case of `COC(=O)N[C@H](C(=O)N1CCC[C@H]1c1nc2c([nH]1)-c1ccc(C#Cc3ccc4nc([C@@H]5CCCN5C(=O)[C@H](NC(=O)OC5CCOCC5)c5ccccc5)[nH]c4c3)cc1CCC2)C(C)C` [Compound 1282], the EC50 was less than 1 nM.
